Tests used:
Format in all cases: in vivo
[1] = tested on: barnyardgrass (Echinochloa crus-galli); experiment: Test B flooded paddy; details: Echinochloa crus-galli, 336 h; 250 g ai/ha, Flood, 13 to 15 days, scale 0 (no effect) to 100 (complete control); read-out: Plant response rating, Barnyardgrass
In short: (§1)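 Compound was added to standing water 3 cm above soil, flood maintained, and plants held in a greenhouse before visual scoring against controls at 13 to 15 days.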

[2] = tested on: ducksalad (Heteranthera limosa); experiment: Test B flooded paddy; details: Heteranthera limosa, 336 h; 250 g ai/ha, Flood, 13 to 15 days, scale 0 (no effect) to 100 (complete control); read-out: Plant response rating, Ducksalad
In short: as §1

rice (Oryza sativa) = experiment: Test B flooded paddy; details: Oryza sativa, 336 h; 250 g ai/ha, Flood, 13 to 15 days, scale 0 (no effect) to 100 (complete control); read-out: Plant response rating, Rice
In short: as §1

[3] = tested on: sedge, umbrella (small-flower umbrella sedge, Cyperus difformis); experiment: Test B flooded paddy; details: Cyperus difformis, 336 h; 250 g ai/ha, Flood, 13 to 15 days, scale 0 (no effect) to 100 (complete control); read-out: Plant response rating, Sedge, Umbrella
In short: as §1

[4] = tested on: Italian ryegrass (Lolium multiflorum); experiment: Test A preemergence; details: Lolium multiflorum, pre-emergence, 240 h
In short: (§2)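 Compounds in non-phytotoxic solvent with surfactant applied as soil spray preemergence, or postemergence to plants 2-10 cm at one- to two-leaf stage, in loam/sand. After approximately 10 days in greenhouse, injury rated visually versus untreated controls, 0 (no effect) to 100 (complete control).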

[5] = tested on: barnyardgrass (Echinochloa crus-galli); experiment: Test A preemergence; details: Echinochloa crus-galli, pre-emergence, 240 h
In short: as §2

[6] = tested on: giant foxtail (Setaria faberii); experiment: Test A preemergence; details: Setaria faberi, pre-emergence, 240 h
In short: as §2

kochia (Kochia scoparia) [7] = experiment: Test A preemergence; details: Bassia scoparia, pre-emergence, 240 h
In short: as §2

[8] = tested on: pigweed (Amaranthus retroflexus); experiment: Test A preemergence; details: Amaranthus retroflexus, pre-emergence, 240 h
In short: as §2

[9] = tested on: ragweed (common ragweed, Ambrosia elatior); experiment: Test A preemergence; details: Ambrosia artemisiifolia, pre-emergence, 240 h
In short: as §2

[10] = tested on: Italian ryegrass (Lolium multiflorum); experiment: Test A postemergence; details: Lolium multiflorum, post-emergence, 240 h, 0 to 100 scale, read-out: Plant response rating, Ryegrass, Italian
In short: as §2

[11] = tested on: barnyardgrass (Echinochloa crus-galli); experiment: Test A postemergence; details: Echinochloa crus-galli, post-emergence, 240 h, 0 to 100 scale, read-out: Plant response rating, Barnyardgrass
In short: as §2

[12] = tested on: blackgrass (Alopecurus myosuroides); experiment: Test A postemergence; details: Alopecurus myosuroides, post-emergence, 240 h, 0 to 100 scale, read-out: Plant response rating, Blackgrass
In short: as §2

corn (Zea mays) = experiment: Test A postemergence; details: Zea mays, post-emergence, 240 h, 0 to 100 scale
In short: as §2

[13] = tested on: galium (catchweed bedstraw, Galium aparine); experiment: Test A postemergence; details: Galium, post-emergence, 240 h, 0 to 100 scale, read-out: Plant response rating, Galium
In short: as §2

[14] = tested on: giant foxtail (Setaria faberii); experiment: Test A postemergence; details: Setaria faberi, post-emergence, 240 h, 0 to 100 scale, read-out: Plant response rating, Foxtail, Giant
In short: as §2

kochia (Kochia scoparia) [15] = experiment: Test A postemergence; details: Bassia scoparia, post-emergence, 240 h, 0 to 100 scale, read-out: Plant response rating, Kochia
In short: as §2

[16] = tested on: pigweed (Amaranthus retroflexus); experiment: Test A postemergence; details: Amaranthus retroflexus, post-emergence, 240 h, 0 to 100 scale, read-out: Plant response rating, Pigweed
In short: as §2

[17] = tested on: ragweed (common ragweed, Ambrosia elatior); experiment: Test A postemergence; details: Ambrosia artemisiifolia, post-emergence, 240 h, 0 to 100 scale, read-out: Plant response rating, Ragweed
In short: as §2

[18] = tested on: wheat (Triticum aestivum); experiment: Test A postemergence; details: Triticum aestivum, post-emergence, 240 h, 0 to 100 scale, read-out: Plant response rating, Wheat
In short: as §2

[19] = tested on: pigweed (Amaranthus retroflexus); experiment: Test C postemergence; details: Amaranthus retroflexus, post-emergence, 336 h, Postemergence, scale 0 to 100, read-out: Plant response rating, Pigweed
Description: (§3) Seeds of plant species selected from blackgrass (Alopecurus myosuroides), Italian ryegrass (Lolium multiflorum), winter wheat (Triticum aestivum), galium (catchweed bedstraw, Galium aparine), corn (Zea mays), large (Lg) crabgrass (Digitaria sanguinalis), giant foxtail (Setaria faberii), johnsongrass (Sorghum halepense), lambsquarters (Chenopodium album), morningglory (Ipomoea coccinea), yellow nutsedge (Cyperus esculentus), pigweed (Amaranthus retroflexus), ragweed (common ragweed, Ambrosia elatior), soybean (Glycine max), barnyardgrass (Echinochloa crus-galli), oilseed rape (Brassica napus), waterhemp (common waterhemp, Amaranthus rudis), and velvetleaf (Abutilon theophrasti) were planted into a blend of loam soil and sand and treated preemergence with test chemicals formulated in a non-phytotoxic solvent mixture which included a surfactant.
(§4) At the same time, plants selected from these crop and weed species and also chickweed (common chickweed, Stellaria media), kochia (Kochia scoparia), and wild oat (Avena fatua), were planted in pots containing Redi-Earth® planting medium (Scotts Company, 14111 Scottslawn Road, Marysville, Ohio 43041) comprising spaghnum peat moss, vermiculite, wetting agent and starter nutrients and treated with postemergence applications of test chemicals formulated in the same manner. Plants ranged in height from 2 to 18 cm (1- to 4-leaf stage) for postemergence treatments. Treated plants and controls were maintained in a greenhouse for 13 to 15 days, after which time all species were compared to controls and visually evaluated. Plant response ratings, summarized in Table C, are based on a scale of 0 to 100 where 0 is no effect and 100 is complete control. A dash (-) response means no test result.

[20] = tested on: waterhemp (common waterhemp, Amaranthus rudis); experiment: Test C postemergence; details: Amaranthus tuberculatus, post-emergence, Postemergence, scale 0 to 100, read-out: Plant response rating, Waterhemp
Description: as §3, §4

## Fc1cccc(Oc2ncc(Cl)cn2)c1Oc1ncc(C(F)(F)F)cn1 [Compound 43, 5-chloro-2-[5-fluoro-6-[[5-(trifluoromethyl)-2-pyrimidinyl]oxy]phenoxy]pyrimidine]
[1]
  pest or weed control at 250 g/ha: 85%
[2]
  pest or weed control at 250 g/ha: 100%
Rice (Oryza sativa)
  plant injury at 250 g/ha: 60%
[3]
  pest or weed control at 250 g/ha: 90%
[4]; 125 g ai/ha, 0 to 100 scale (0 no effect, 100 complete control), read-out: Ryegrass, Italian plant response rating
  pest or weed control at 125 g/ha: 50%
[4]; 500 g ai/ha, 0 to 100 scale, read-out: Plant response rating, Ryegrass, Italian
  pest or weed control at 500 g/ha: 100%
[5]; 125 g ai/ha, 0 to 100 scale (0 no effect, 100 complete control), read-out: Barnyardgrass plant response rating
  pest or weed control at 125 g/ha: 100%
[5]; 500 g ai/ha, 0 to 100 scale, read-out: Plant response rating, Barnyardgrass
  pest or weed control at 500 g/ha: 100%
[6]; 125 g ai/ha, 0 to 100 scale (0 no effect, 100 complete control), read-out: Foxtail, Giant plant response rating
  pest or weed control at 125 g/ha: 100%
[6]; 500 g ai/ha, 0 to 100 scale, read-out: Plant response rating, Foxtail, Giant
  pest or weed control at 500 g/ha: 100%
Kochia (Kochia scoparia) [7]; 125 g ai/ha, 0 to 100 scale (0 no effect, 100 complete control), read-out: Kochia plant response rating
  pest or weed control at 125 g/ha: 100%
Kochia (Kochia scoparia) [7]; 500 g ai/ha, 0 to 100 scale, read-out: Plant response rating, Kochia
  pest or weed control at 500 g/ha: 100%
[8]; 125 g ai/ha, 0 to 100 scale (0 no effect, 100 complete control), read-out: Pigweed plant response rating
  pest or weed control at 125 g/ha: 100%
[8]; 500 g ai/ha, 0 to 100 scale, read-out: Plant response rating, Pigweed
  pest or weed control at 500 g/ha: 100%
[9]; 125 g ai/ha, 0 to 100 scale (0 no effect, 100 complete control), read-out: Ragweed plant response rating
  pest or weed control at 125 g/ha: 70%
[9]; 500 g ai/ha, 0 to 100 scale, read-out: Plant response rating, Ragweed
  pest or weed control at 500 g/ha: 100%
[10]; 125 g ai/ha
  pest or weed control at 125 g/ha: 80%
[10]; 500 g ai/ha
  pest or weed control at 500 g/ha: 100%
[11]; 125 g ai/ha
  pest or weed control at 125 g/ha: 90%
[11]; 500 g ai/ha
  pest or weed control at 500 g/ha: 100%
[12]; 125 g ai/ha
  pest or weed control at 125 g/ha: 90%
[12]; 500 g ai/ha
  pest or weed control at 500 g/ha: 100%
Corn (Zea mays); 125 g ai/ha
  Corn plant response rating (crop injury, 0 = no effect, 100 = complete kill) at 125 g/ha: 70%
Corn (Zea mays); 500 g ai/ha
  Corn plant response rating (crop injury, 0 = no effect, 100 = complete kill) at 500 g/ha: 100%
[13]; 125 g ai/ha
  pest or weed control at 125 g/ha: 100%
[13]; 500 g ai/ha
  pest or weed control at 500 g/ha: 100%
[14]; 125 g ai/ha
  pest or weed control at 125 g/ha: 90%
[14]; 500 g ai/ha
  pest or weed control at 500 g/ha: 100%
Kochia (Kochia scoparia) [15]; 125 g ai/ha
  pest or weed control at 125 g/ha: 100%
Kochia (Kochia scoparia) [15]; 500 g ai/ha
  pest or weed control at 500 g/ha: 100%
[16]; 125 g ai/ha
  pest or weed control at 125 g/ha: 100%
[16]; 500 g ai/ha
  pest or weed control at 500 g/ha: 100%
[17]; 125 g ai/ha
  pest or weed control at 125 g/ha: 70%
[17]; 500 g ai/ha
  pest or weed control at 500 g/ha: 100%
[18]; 125 g ai/ha
  plant injury at 125 g/ha: 80%
[18]; 500 g ai/ha
  plant injury at 500 g/ha: 100%
[19]; 31 g ai/ha
  pest or weed control at 31 g/ha: 85%
[19]; 62 g ai/ha
  pest or weed control at 62 g/ha: 90%
[19]; 125 g ai/ha
  pest or weed control at 125 g/ha: 98%
[20]; 31 g ai/ha
  pest or weed control at 31 g/ha: 70%
[20]; 62 g ai/ha
  pest or weed control at 62 g/ha: 80%
[20]; 125 g ai/ha
  pest or weed control at 125 g/ha: 90%

Source: patent publication US20170190671A1, “BIS(ARYL)CATECHOL DERIVATIVES AS HERBICIDES” (E I DU PONT DE NEMOURS AND COMPANY, priority 2014, published 2017)
